Data taken from PMC10222120, “Inhibition Studies on Human and Mycobacterial Carbonic Anhydrases with N-((4-Sulfamoylphenyl)carbamothioyl) Amides” (Molecules, 2023).

Columns and labels:
Test in all cases: stopped-flow CO2 hydrase assay
Format in all cases: biochemical
hCA I = molecular target: T1, hCA I (Homo sapiens, UniProt P00915); settings: read-out: KI (nM) ^a / hCA I (α-CA)
T1 construct: gene CA1; recombinant, obtained in-house; cytosolic alpha-CA
From the text: stopped-flow CO2 hydrase assay on hCA I

hCA VII = molecular target: T2, hCA VII (Homo sapiens, UniProt P43166); settings: read-out: KI (nM) ^a / hCA VII (α-CA)
T2 construct: gene CA7; recombinant, obtained in-house; cytosolic alpha-CA
T2 sequence (P43166 whole entry): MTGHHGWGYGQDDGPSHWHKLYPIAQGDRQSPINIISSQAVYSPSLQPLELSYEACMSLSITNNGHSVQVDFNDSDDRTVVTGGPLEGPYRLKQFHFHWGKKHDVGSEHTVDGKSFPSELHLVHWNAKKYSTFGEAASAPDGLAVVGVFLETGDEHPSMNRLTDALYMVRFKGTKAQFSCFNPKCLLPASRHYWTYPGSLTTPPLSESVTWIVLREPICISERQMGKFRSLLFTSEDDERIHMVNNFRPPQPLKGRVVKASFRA
From the text: stopped-flow CO2 hydrase assay on hCA VII

MtCA1 = MtCA1 (Mycobacterium tuberculosis, UniProt P9WPJ7); settings: read-out: KI (nM) ^a / MtCA1 (β-CA)
Sequence of MtCA1 (P9WPJ7 2-163): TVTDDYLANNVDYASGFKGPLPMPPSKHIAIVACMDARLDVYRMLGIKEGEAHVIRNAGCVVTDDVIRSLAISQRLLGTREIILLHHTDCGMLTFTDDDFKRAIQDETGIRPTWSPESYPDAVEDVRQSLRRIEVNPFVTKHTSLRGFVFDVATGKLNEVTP

MtCA3 = molecular target: T3, MtCA3 (Mycobacterium tuberculosis, UniProt P96878); settings: CO2 […]; […] TRIS pH […]; […] Na2SO4; […] h preincubation at room temperature; read-out: KI (nM) ^a / MtCA3 (β-CA)
T3 construct: gene Rv3273
T3 sequence (P96878 555-764 limits assumed): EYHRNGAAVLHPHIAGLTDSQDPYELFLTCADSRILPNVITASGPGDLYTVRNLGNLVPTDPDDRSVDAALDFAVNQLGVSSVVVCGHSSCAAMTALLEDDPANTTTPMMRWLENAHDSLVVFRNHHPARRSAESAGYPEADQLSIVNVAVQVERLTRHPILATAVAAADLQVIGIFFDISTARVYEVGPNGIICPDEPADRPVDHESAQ
From the text: stopped-flow CO2 hydrase assay on MtCA3

MtCA2 = MtCA2 (Mycobacterium tuberculosis, UniProt P9WPJ9); settings: read-out: KI (nM) ^a / MtCA2 (β-CA)
Sequence of MtCA2 (P9WPJ9 whole entry, looked up): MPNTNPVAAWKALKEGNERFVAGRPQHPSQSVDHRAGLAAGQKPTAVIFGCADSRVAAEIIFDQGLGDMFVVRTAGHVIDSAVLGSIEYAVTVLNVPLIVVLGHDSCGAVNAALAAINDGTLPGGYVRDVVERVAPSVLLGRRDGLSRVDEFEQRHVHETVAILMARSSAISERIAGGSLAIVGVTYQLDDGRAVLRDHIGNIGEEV

hCA II = molecular target: T4, hCA II (Homo sapiens, UniProt P00918); settings: read-out: KI (nM) ^a / hCA II (α-CA)
T4 construct: gene CA2; recombinant, obtained in-house; cytosolic alpha-CA
From the text: stopped-flow CO2 hydrase assay on hCA II

T1 sequence (P00915 2-261): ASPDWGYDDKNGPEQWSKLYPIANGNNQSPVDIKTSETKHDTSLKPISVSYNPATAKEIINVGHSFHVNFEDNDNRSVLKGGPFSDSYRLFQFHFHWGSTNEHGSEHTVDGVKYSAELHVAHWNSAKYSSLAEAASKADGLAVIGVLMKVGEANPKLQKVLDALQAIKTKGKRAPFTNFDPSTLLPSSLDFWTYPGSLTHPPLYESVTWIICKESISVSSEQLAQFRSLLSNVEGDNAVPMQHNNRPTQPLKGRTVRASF

SMILES	Ki (hCA I)	Ki (hCA VII)	Ki (MtCA1)	Ki (MtCA3)	Ki (MtCA2)	Ki (hCA II)
CC(=O)NC(=S)Nc1ccc(S(N)(=O)=O)cc1 [3a, N-((4-Sulfamoylphenyl)carbamothioyl)acetamide]	85.2 nM	13.5 nM	897 nM	610 nM	4.4 nM	78.7 nM
CC(C)CC(=O)NC(=S)Nc1ccc(S(N)(=O)=O)cc1 [3f, 3-methyl-N-((4-sulfamoylphenyl)carbamothioyl)butanamide]	36.4 nM	2.1 nM	782 nM	8390 nM	21.1 nM	5.3 nM
NS(=O)(=O)c1ccc(NC(=S)NC(=O)c2ccc([N+](=O)[O-])cc2)cc1 [3l, 4-nitro-N-((4-sulfamoylphenyl)carbamothioyl)benzamide]	87.6 nM	2.5 nM	868 nM	5280 nM	4.8 nM	6.8 nM
CCCC(=O)NC(=S)Nc1ccc(S(N)(=O)=O)cc1 [3c, N-((4-Sulfamoylphenyl)carbamothioyl)butyramide]	50.3 nM	3 nM	784 nM	9400 nM	7.6 nM	7.7 nM
NS(=O)(=O)c1ccc(NC(=S)NC(=O)/C=C/c2ccccc2)cc1 [3k, N-((4-Sulfamoylphenyl)carbamothioyl)cinnamamide]	47.9 nM	3.1 nM	224 nM	447 nM	8.1 nM	9.2 nM
CC(C)C(=O)NC(=S)Nc1ccc(S(N)(=O)=O)cc1 [3e, N-((4-sulfamoylphenyl)carbamothioyl)isobutyramide]	72.7 nM	1.1 nM	369 nM	3670 nM	57.1 nM	8.9 nM
CCC(=O)NC(=S)Nc1ccc(S(N)(=O)=O)cc1 [3b, N-((4-Sulfamoylphenyl)carbamothioyl)propionamide]	58.3 nM	2.8 nM	252 nM	806 nM	5.4 nM	35.9 nM
NS(=O)(=O)c1ccc(NC(=S)NC(=O)C2CCCCC2)cc1 [3h, N-((4-Sulfamoylphenyl)carbamothioyl)cyclohexanecarboxamide]	67.8 nM	2.2 nM	6670 nM	7140 nM	8.4 nM	21.7 nM
C/C=C/C(=O)NC(=S)Nc1ccc(S(N)(=O)=O)cc1 [3j, N-((4-Sulfamoylphenyl)carbamothioyl)but-2-enamide]	69.4 nM	10.3 nM	2420 nM	851 nM	9.2 nM	64.6 nM
CCCCCC(=O)NC(=S)Nc1ccc(S(N)(=O)=O)cc1 [3g, N-((4-sulfamoylphenyl)carbamothioyl)hexanamide]	13.3 nM	3.2 nM	3510 nM	719 nM	3.4 nM	46.5 nM
NS(=O)(=O)c1ccc(NC(=S)NC(=O)C2CC2)cc1 [3d, N-((4-Sulfamoylphenyl)carbamothioyl)cyclopropanecarboxamide]	87.4 nM	1.9 nM	95.2 nM	6280 nM	4.2 nM	384 nM
NS(=O)(=O)c1ccc(NC(=S)NC(=O)Cc2cccc3ccccc23)cc1 [3i, 2-(Naphthalen-1-yl)-N-((4-sulfamoylphenyl)carbamothioyl)acetamide]	60.5 nM	2.6 nM	962 nM	2130 nM	4.6 nM	9.7 nM
